Test results from patent US20090093054A1, “CRYOPRESERVATION OF HUMAN BLASTOCYST-DERIVED STEM CELLS BY USE OF A CLOSED STRAW VITRIFICATION METHOD” (Cellartis AB, priority 2003, published 2009).
Values joined by “and” are separate entries in the source; they are usually repeats but may differ in a detail not shown here. Identical values can stand only once.

Tests used:
Human BS cell line SA002 = experiment: Thawing recovery after closed straw vitrification and devitrification, cell line SA002; assay type: cell-based; settings: viable colonies / pieces vitrified per closed straw, 48 h after seeding
Human BS cell line SA121 = experiment: Thawing recovery after closed straw vitrification and devitrification, cell line SA121; assay type: cell-based; settings: for Thawing recovery (SA121): viable colonies / pieces vitrified per closed straw, 48 h after seeding; for Thawing recovery, trehalose compared with sucrose: same molar concentration in vitrification and devitrification medium; for Thawing recovery: viable thawed colonies / hBS cell pieces originally vitrified, per individual closed straw, 48 h after seeding on MEF, sugar in vitrification and devitrification medium, same molar concentration for both
Description: Two solutions A and B are prepared (Solution A: Sterile filtered 10% Ethylene glycol, 10% DMSO in Cryo-PBS; Solution B: Sterile filtered 0.3M Trehalose, 20% Ethylene glycol, 10% DMSO in Cryo-PBS) Selected colonies of human blastocyst-derived stem cells, which display proper morphology, are cut in the same way as when the cells are cut for regular passage using a stem cell cutting tool (Swemed Labs International, BilIdal, Sweden). The cell pieces should be about 0.1-0.4 mm×0.1-0.4 mm in size. The cell pieces are incubated first in 500 μl preheated (37° C.) Solution A for 1 min and then transferred to 25 μl Solution B and incubated for 30 s and then transferred again to a fresh drop of Solution B and incubated for 30 s. The volume is about 40-50 μl. About 10 cell pieces are aspirated into a straw prepared for vitrification and the straw is then closed with a bond. The straw is plunged into liquid nitrogen.
Two solutions C and D are prepared (Solution C: Sterile filtered 0.2M Trehalose in Cryo-PBS.; Solution D: Sterile filtered 0.1 M Trehalose in Cryo-PBS). Solutions C and D and hBS-medium are preheated at 37° C. A closed straw containing vitrified hBS cells (about 10 cell pieces) is removed from the liquid nitrogen tank. The straw is keep at room temperature for 10 s and then quickly thawed in a 40° C. water bath (within seconds). The straw is cut open in the plugged end using an autoclaved pair of scissors and the content pushed out from the straw into solution C using a syringe. The hBS cells are incubated for 1 min in 500 μl solution C and the transferred to 500 μl solution D and incubated for 5 min. Under a stero-microscope the hBS cell pieces are quickly rinsed in hBS medium and then seeded in a culture dish on top of mouse embryonic feeder cells in hBS medium. The cells are then cultured (incubated at 37° C.) and the number of established new colonies are counted and passaged in order to verify the viability of the hBS cells after vitrification. The recovery of viable cells following this vitrifying and thawing procedures is normally in the range of 70-100%.
Human BS cells (cell line SA121) were vitrified and thawed either following the procedure described in Example 1 & 2 or following the procedure described in Example 1 and 2 with the exception that trehalose was used in the vitrification and devitrification medium was replaced by sucrose in the same molar concentration as used for trehalose. Forty-eight hours after seeding in culture dishes on top of mouse embryonic feeder cells the hBS cell colonies were evaluated and counted. The thawing recovery was calculated as the ratio between the number of viable thawed colonies (displaying appropriate hBS cell morphology) and the number of hBS cell pieces originally vitrified. […]
Human BS cells (cell line SA121) were vitrified and thawed following the procedure described in Example 1 & 2 with the exception that trehalose was used in two different concentrations (0.3M and 0.5M) in the second vitrification solution (solution B). When 0.3 M trehalose was used in solution B, solution C contained 0.2 M trehalose and solution D contained 0.1 M trehalose. When 0.5 M trehalose was used in solution B, solution C contained 0.4 M trehalose and solution D contained 0.2 M trehalose. Forty-eight hours after seeding in culture dishes on top of mouse embryonic feeder cells the hBS cell colonies were evaluated and counted. The thawing recovery was calculated as the ratio between the number of viable thawed colonies (displaying appropriate hBS cell morphology) and the number of hBS cell pieces originally vitrified. Two separate experiments using two different human BS cell lines were performed. Three straws were prepared and evaluated per cell line and the results are presented below for each individual straw.

[1] = 0.3M trehalose in solution B (C 0.2 M, D 0.1 M)
[2] = 0.5M trehalose in solution B (C 0.4 M, D 0.2 M)

| SMILES | Thawing recovery (SA002) (Human BS cell line SA002; [1]) | Thawing recovery (SA002) (Human BS cell line SA002; [2]) | Thawing recovery (SA121) (Human BS cell line SA121; [1]) | Thawing recovery (SA121) (Human BS cell line SA121; [2]) | Thawing recovery, 0.5 M compared with 0.3 M trehalose in solution B (Human BS cell line SA121; cell lines SA121 and SA002, result in words) | Thawing recovery, trehalose compared with sucrose (Human BS cell line SA121; result in words) | Thawing recovery (Human BS cell line SA121) |
| --- | --- | --- | --- | --- | --- | --- | --- |
| OC[C@H]1O[C@H](O[C@H]2O[C@H](CO)[C@@H](O)[C@H](O)[C@H]2O)[C@H](O)[C@@H](O)[C@@H]1O [Trehalose] | 5/8 and 6/8 and 7/7 | 7/8 and 8/8 and 5/7 | 6/10 and 5/10 | 8/10 and 9/10 and 8/8 | seems to work better | no significant difference | 5/9 and 8/10 and 6/10 |
| OC[C@H]1O[C@@](CO)(O[C@H]2O[C@H](CO)[C@@H](O)[C@H](O)[C@H]2O)[C@@H](O)[C@@H]1O [Sucrose] | – | – | – | – | – | no significant difference | 8/10 and 5/10 and 9/10 |
